Results: patent US20260364215A1, “Radiopharmaceutical Compositions Targeting Ephrin Type-A Receptor 2 and Uses Thereof” (PeptiDream Inc., priority 2022, published 2026)
Like-named read-outs stand apart in the source and are kept apart here. Numbered stars: 1 amine (or outer) side, 2 acyl side, 3 side chain; on linkers, the order of the positions; unused ones are H or OH. Bridge positions count the residues as written; N and C are the ends. Square brackets hold non-standard residues; d marks the D form. Side chains are listed from the residue outwards. Peptide text beside a SMILES is read from it. * marks the point of attachment. DOTA(Lu) = O=C1CN2CCN3CCN(CC(=O)*)CCN(CC2)CC(=O)[O][Lu]([O]1)[O]C(=O)C3; NH(1-deoxy-D-glucityl) = OC[C@@H](O)[C@@H](O)[C@H](O)[C@@H](O)CN*; DOTA = O=C(O)CN1CCN(CC(=O)O)CCN(CC(=O)*)CCN(CC(=O)O)CC1; Trp(1-Me,7-Cl) = Cn1cc(C[C@H](N)C(=O)O)c2cccc(Cl)c21; dPhe(3-CONH2) = NC(=O)c1cccc(C[C@@H](N)C(=O)O)c1; Piperazinyl(4-CH2COOH) = O=C(O)CN1CCN(*)CC1; Trp(1-Me) = Cn1cc(C[C@H](N)C(=O)O)c2ccccc21; NMemTyr = CN[C@@H](Cc1cccc(O)c1)C(=O)O; NMe3Pal = CN[C@@H](Cc1cccnc1)C(=O)O; hCit = NC(=O)NCCCC[C@H](N)C(=O)O; Gly(cBu) = N[C@H](C(=O)O)C1CCC1; NMeE = CN[C@@H](CCC(=O)O)C(=O)O; Aad = N[C@@H](CCCC(=O)O)C(=O)O; NMeN = CN[C@@H](CC(N)=O)C(=O)O; CO = O=C([*:1])[*:2]

Target: T1, Recombinant Human EphA2 Fc Protein (Homo sapiens, UniProt P29317)
T1 construct: purchased Elabscience
T1 sequence (P29317 24-534 limits assumed): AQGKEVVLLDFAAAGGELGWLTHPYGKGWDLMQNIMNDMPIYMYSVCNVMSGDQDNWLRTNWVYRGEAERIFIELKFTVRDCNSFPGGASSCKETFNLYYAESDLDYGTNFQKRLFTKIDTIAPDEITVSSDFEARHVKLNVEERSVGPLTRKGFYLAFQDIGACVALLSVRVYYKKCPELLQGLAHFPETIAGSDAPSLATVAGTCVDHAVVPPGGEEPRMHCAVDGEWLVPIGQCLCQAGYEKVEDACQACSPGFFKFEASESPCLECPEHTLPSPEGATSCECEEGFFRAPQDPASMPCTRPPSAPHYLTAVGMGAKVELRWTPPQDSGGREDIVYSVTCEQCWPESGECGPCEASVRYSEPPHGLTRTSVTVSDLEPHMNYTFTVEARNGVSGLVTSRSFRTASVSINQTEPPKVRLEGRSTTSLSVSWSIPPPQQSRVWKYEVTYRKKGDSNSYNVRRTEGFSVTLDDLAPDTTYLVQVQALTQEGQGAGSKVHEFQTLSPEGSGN
Test: Interaction analysis (kinetics, KD) of peptides and conjugates against EphA2 by SPR, Biacore T200, single-cycle kinetics (Examples B15 and B22)
Type: binding
Outline: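 Biacore T200 SPR with Fc-tagged human EphA2 captured via anti-human antibody; running buffer HBS-P+ pH 7.4 with 1% DMSO, 25 °C. Five serial dilutions of peptide or conjugate run by single-cycle kinetics; KD from ka and kd after baseline subtraction.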

[1] = conjugates, Biacore T200 according to Example B15, Table B16, read-out: SPR Kd

Structure (SMILES)	Kd [1] [nM]	Kd [nM]
CN1C(=O)[C@H](CCC(=O)NC[C@H](O)[C@@H](O)[C@H](O)[C@H](O)CO)NC(=O)[C@H](C2CCC2)NC(=O)[C@H](CC(N)=O)NC(=O)[C@H](Cc2cccnc2)N(C)C(=O)[C@@H](Cc2cccc(C(N)=O)c2)NC(=O)CSC[C@@H](C(=O)N[C@@H](CCCCNC(=O)CN2CCN(CC(=O)O)CCN(CC(=O)O)CCN(CC(=O)O)CC2)C(N)=O)NC(=O)[C@H](Cc2cn(C)c3ccccc23)NC(=O)[C@H](CCCCNC(=O)N2CCN(CC(=O)O)CC2)NC(=O)[C@H](Cc2cn(C)c3c(Cl)cccc23)NC(=O)[C@@H]1Cc1cccnc1.[Lu+3] [PDC_EphA2-00026603-C301] ({CH2CO}-[dPhe(3-CONH2)][NMe3Pal]N[Gly(cBu)]E(NH(1-deoxy-D-glucityl))[NMe3Pal][Trp(1-Me,7-Cl)]K([CO-Piperazinyl(4-CH2COOH)])[Trp(1-Me)]CK(DOTA)-NH2; thioether N-10)	< 1	
CN1C(=O)[C@H](CCC(=O)NC[C@H](O)[C@@H](O)[C@H](O)[C@H](O)CO)NC(=O)[C@H](C2CCC2)NC(=O)[C@H](CC(N)=O)NC(=O)[C@H](Cc2cccnc2)N(C)C(=O)[C@@H](Cc2cccc(C(N)=O)c2)NC(=O)CSC[C@@H](C(=O)N[C@@H](CCCCNC(=O)CN2CCN3CCN4CCN(CC2)CC(=O)[O][Lu]([O]C(=O)C3)[O]C(=O)C4)C(N)=O)NC(=O)[C@H](Cc2cn(C)c3ccccc23)NC(=O)[C@H](CCC(=O)NC[C@H](O)[C@@H](O)[C@H](O)[C@H](O)CO)NC(=O)[C@H](Cc2cn(C)c3c(Cl)cccc23)NC(=O)[C@@H]1Cc1cccnc1 [PDC_EphA2-00026604-C301] ({CH2CO}-[dPhe(3-CONH2)][NMe3Pal]N[Gly(cBu)]E(NH(1-deoxy-D-glucityl))[NMe3Pal][Trp(1-Me,7-Cl)]E(NH(1-deoxy-D-glucityl))[Trp(1-Me)]CK(DOTA(Lu))-NH2; thioether N-10)		< 1
CN1C(=O)[C@H](CCCC(N)=O)NC(=O)[C@H](C2CCC2)NC(=O)[C@H](CC(N)=O)NC(=O)[C@H](Cc2cccnc2)N(C)C(=O)[C@@H](Cc2cccc(C(N)=O)c2)NC(=O)CSC[C@@H](C(=O)N[C@@H](CCCCNC(=O)CN2CCN3CCN4CCN(CC2)CC(=O)[O][Lu]([O]C(=O)C3)[O]C(=O)C4)C(N)=O)NC(=O)[C@H](Cc2cn(C)c3ccccc23)NC(=O)[C@H](CCCCNC(=O)N2CCN(CC(=O)O)CC2)NC(=O)[C@H](Cc2cn(C)c3c(Cl)cccc23)NC(=O)[C@@H]1CCC(=O)O [PDC_EphA2-00026606-C301] ({CH2CO}-[dPhe(3-CONH2)][NMe3Pal]N[Gly(cBu)][Aad](NH2)[NMeE][Trp(1-Me,7-Cl)]K([CO-Piperazinyl(4-CH2COOH)])[Trp(1-Me)]CK(DOTA(Lu))-NH2; thioether N-10)		< 1
CN1C(=O)[C@H](CCC(=O)NC[C@H](O)[C@@H](O)[C@H](O)[C@H](O)CO)NC(=O)[C@H](C2CCC2)NC(=O)[C@H](CC(N)=O)NC(=O)[C@H](Cc2cccnc2)N(C)C(=O)[C@@H](Cc2cccc(C(N)=O)c2)NC(=O)CSC[C@@H](C(=O)N[C@@H](CCCCNC(=O)CN2CCN3CCN4CCN(CC2)CC(=O)[O][Lu]([O]C(=O)C3)[O]C(=O)C4)C(N)=O)NC(=O)[C@H](Cc2cn(C)c3ccccc23)NC(=O)[C@H](CCCCNC(N)=O)NC(=O)[C@H](Cc2cn(C)c3c(Cl)cccc23)NC(=O)[C@@H]1CCC(=O)O [PDC_EphA2-00026607-C301] ({CH2CO}-[dPhe(3-CONH2)][NMe3Pal]N[Gly(cBu)]E(NH(1-deoxy-D-glucityl))[NMeE][Trp(1-Me,7-Cl)][hCit][Trp(1-Me)]CK(DOTA(Lu))-NH2; thioether N-10)		< 1
CN1C(=O)[C@H](CCCC(N)=O)NC(=O)[C@H](C2CCC2)NC(=O)[C@H](CC(N)=O)NC(=O)[C@H](Cc2cccc(O)c2)N(C)C(=O)[C@@H](Cc2cccc(C(N)=O)c2)NC(=O)CSC[C@@H](C(=O)N[C@@H](CCCCNC(=O)CN2CCN3CCN4CCN(CC2)CC(=O)[O][Lu]([O]C(=O)C3)[O]C(=O)C4)C(N)=O)NC(=O)[C@H](Cc2cn(C)c3ccccc23)NC(=O)[C@H](CCCCNC(=O)N2CCN(CC(=O)O)CC2)NC(=O)[C@H](Cc2cn(C)c3c(Cl)cccc23)NC(=O)[C@@H]1CCC(=O)O [PDC_EphA2-00026608-C301] ({CH2CO}-[dPhe(3-CONH2)][NMemTyr]N[Gly(cBu)][Aad](NH2)[NMeE][Trp(1-Me,7-Cl)]K([CO-Piperazinyl(4-CH2COOH)])[Trp(1-Me)]CK(DOTA(Lu))-NH2; thioether N-10)		< 1
CC(C)C[C@@H]1NC(=O)[C@H](CC(N)=O)NC(=O)[C@H](Cc2cccnc2)N(C)C(=O)[C@@H](C)NC(=O)CSC[C@@H](C(N)=O)NC(=O)[C@H](CCCC(N)=O)NC(=O)[C@H]([C@@H](C)O)NC(=O)[C@H](Cc2cn(C)c3ccccc23)NC(=O)[C@H](CCCCNC(=O)N2CCN(CC(=O)O)CC2)NC(=O)[C@H](Cc2cn(C)c3c(Cl)cccc23)NC(=O)[C@H](CCC(=O)O)N(C)C(=O)[C@H](CCCCNC(=O)CN2CCN3CCN4CCN(CC2)CC(=O)[O][Lu]([O]C(=O)C3)[O]C(=O)C4)NC1=O [PDC_EphA2-00026631] ({CH2CO}-[dA][NMe3Pal]NLK(DOTA(Lu))[NMeE][Trp(1-Me,7-Cl)]K([CO-Piperazinyl(4-CH2COOH)])[Trp(1-Me)]T[Aad](NH2)C-NH2; thioether N-12)		< 1
CC(C)C[C@@H]1NC(=O)[C@H](CC(N)=O)NC(=O)[C@H](Cc2cccnc2)N(C)C(=O)[C@@H](C)NC(=O)CSC[C@@H](C(N)=O)NC(=O)[C@H](CCCC(N)=O)NC(=O)[C@H]([C@@H](C)O)NC(=O)[C@H](Cc2cn(C)c3ccccc23)NC(=O)[C@H](CCCCNC(=O)CN2CCN3CCN4CCN(CC2)CC(=O)[O][Lu]([O]C(=O)C3)[O]C(=O)C4)NC(=O)[C@H](Cc2cn(C)c3c(Cl)cccc23)NC(=O)[C@H](CCC(=O)O)N(C)C(=O)[C@H](CCCC(N)=O)NC1=O [PDC_EphA2-00026632] ({CH2CO}-[dA][NMe3Pal]NL[Aad](NH2)[NMeE][Trp(1-Me,7-Cl)]K(DOTA(Lu))[Trp(1-Me)]T[Aad](NH2)C-NH2; thioether N-12)		< 1
CC(C)C[C@@H]1NC(=O)[C@H](CC(N)=O)NC(=O)[C@H](Cc2cccnc2)N(C)C(=O)[C@@H](C)NC(=O)CSC[C@@H](C(N)=O)NC(=O)[C@H](CCCCNC(=O)CN2CCN3CCN4CCN(CC2)CC(=O)[O][Lu]([O]C(=O)C3)[O]C(=O)C4)NC(=O)[C@H]([C@@H](C)O)NC(=O)[C@H](Cc2cn(C)c3ccccc23)NC(=O)[C@H](CCCCNC(=O)N2CCN(CC(=O)O)CC2)NC(=O)[C@H](Cc2cn(C)c3c(Cl)cccc23)NC(=O)[C@H](CCC(=O)O)N(C)C(=O)[C@H](CCCC(N)=O)NC1=O [PDC_EphA2-00026633] ({CH2CO}-[dA][NMe3Pal]NL[Aad](NH2)[NMeE][Trp(1-Me,7-Cl)]K([CO-Piperazinyl(4-CH2COOH)])[Trp(1-Me)]TK(DOTA(Lu))C-NH2; thioether N-12)		< 1
CC(C)C[C@@H]1NC(=O)[C@H](CC(N)=O)NC(=O)[C@H](Cc2cccnc2)N(C)C(=O)[C@@H](Cc2cccc(C(N)=O)c2)NC(=O)CSC[C@@H](C(N)=O)NC(=O)[C@H](CCCC(N)=O)NC(=O)[C@H]([C@@H](C)O)NC(=O)[C@H](Cc2cn(C)c3ccccc23)NC(=O)[C@H](CCC(=O)NC[C@H](O)[C@@H](O)[C@H](O)[C@H](O)CO)NC(=O)[C@H](Cc2cn(C)c3c(Cl)cccc23)NC(=O)[C@H](CC(N)=O)N(C)C(=O)[C@H](CCCCNC(=O)CN2CCN3CCN4CCN(CC2)CC(=O)[O][Lu]([O]C(=O)C3)[O]C(=O)C4)NC1=O [PDC_EphA2-00026714] ({CH2CO}-[dPhe(3-CONH2)][NMe3Pal]NLK(DOTA(Lu))[NMeN][Trp(1-Me,7-Cl)]E(NH(1-deoxy-D-glucityl))[Trp(1-Me)]T[Aad](NH2)C-NH2; thioether N-12)		< 1
CC(C)C[C@@H]1NC(=O)[C@H](CC(N)=O)NC(=O)[C@H](Cc2cccnc2)N(C)C(=O)[C@@H](Cc2cccc(C(N)=O)c2)NC(=O)CSC[C@@H](C(N)=O)NC(=O)[C@H](CCCC(N)=O)NC(=O)[C@H]([C@@H](C)O)NC(=O)[C@H](Cc2cn(C)c3ccccc23)NC(=O)[C@H](CCCCNC(=O)CN2CCN3CCN4CCN(CC2)CC(=O)[O][Lu]([O]C(=O)C3)[O]C(=O)C4)NC(=O)[C@H](Cc2cn(C)c3c(Cl)cccc23)NC(=O)[C@H](CC(N)=O)N(C)C(=O)[C@H](CCCC(N)=O)NC1=O [PDC_EphA2-00026715] ({CH2CO}-[dPhe(3-CONH2)][NMe3Pal]NL[Aad](NH2)[NMeN][Trp(1-Me,7-Cl)]K(DOTA(Lu))[Trp(1-Me)]T[Aad](NH2)C-NH2; thioether N-12)		< 1
CC(C)C[C@@H]1NC(=O)[C@H](CC(N)=O)NC(=O)[C@H](Cc2cccnc2)N(C)C(=O)[C@@H](Cc2cccc(C(N)=O)c2)NC(=O)CSC[C@@H](C(N)=O)NC(=O)[C@H](CCCCNC(=O)CN2CCN(CC(=O)O)CCN(CC(=O)O)CCN(CC(=O)O)CC2)NC(=O)[C@H]([C@@H](C)O)NC(=O)[C@H](Cc2cn(C)c3ccccc23)NC(=O)[C@H](CCC(=O)NC[C@H](O)[C@@H](O)[C@H](O)[C@H](O)CO)NC(=O)[C@H](Cc2cn(C)c3c(Cl)cccc23)NC(=O)[C@H](CC(N)=O)N(C)C(=O)[C@H](CCCC(N)=O)NC1=O.[Lu+3] [PDC_EphA2-00026716] ({CH2CO}-[dPhe(3-CONH2)][NMe3Pal]NL[Aad](NH2)[NMeN][Trp(1-Me,7-Cl)]E(NH(1-deoxy-D-glucityl))[Trp(1-Me)]TK(DOTA)C-NH2; thioether N-12)	< 1	
CC(C)C[C@@H]1NC(=O)[C@H](CC(N)=O)NC(=O)[C@H](Cc2cccnc2)N(C)C(=O)[C@@H](Cc2cccc(C(N)=O)c2)NC(=O)CSC[C@@H](C(N)=O)NC(=O)[C@H](CCCC(N)=O)NC(=O)[C@H]([C@@H](C)O)NC(=O)[C@H](Cc2cn(C)c3ccccc23)NC(=O)[C@H](CCCCNC(=O)N2CCN(CC(=O)O)CC2)NC(=O)[C@H](Cc2cn(C)c3c(Cl)cccc23)NC(=O)[C@H](CCC(=O)O)N(C)C(=O)[C@H](CCCCNC(=O)CN2CCN(CC(=O)O)CCN(CC(=O)O)CCN(CC(=O)O)CC2)NC1=O.[Lu+3] [PDC_EphA2-00026717] ({CH2CO}-[dPhe(3-CONH2)][NMe3Pal]NLK(DOTA)[NMeE][Trp(1-Me,7-Cl)]K([CO-Piperazinyl(4-CH2COOH)])[Trp(1-Me)]T[Aad](NH2)C-NH2; thioether N-12)	< 1	
